For orientation: solubility means the concentration that dissolves in the medium under given conditions.

Some results are limits rather than exact numbers.

The results in this text go back to patent publication US20130261134A1, “MESYLATE SALT FORMS OF A POTENT HCV INHIBITOR” (Boehringer Ingelheim International GmbH, priority 2012, published 2013).

The nature of this data set: Solubility in the physiological pH range. The class given is physicochemical. The following applies: aqueous buffer; physiological pH range of 2-6.8.

As to `Cn1c(C2(NC(=O)c3ccc4c(C5CCCC5)c(-c5ncc(Br)cn5)n(C)c4c3)CCC2)nc2ccc(/C=C/C(=O)O)cc21` [Compound (1), (E)-3-[2-(1-{[2-(5-Bromo-pyrimidin-2-yl)-3-cyclopentyl-1-methyl-1H-indole-6-carbonyl]-amino}-cyclobutyl)-3-methyl-3H-benzimidazol-5-yl]-acrylic acid], the solubility is under 0.2 µg/mL.
